From patent US5462868A (priority 1991, dated 1995) come the findings set out here.

The test system of data set [1] is cocaine esterase. It is filed as biochemical, Pseudomonas maltophilia MB11L. Particulars: 1 mM inhibitor; for % ACTIVITY RELATIVE TO CONTROL: preincubated 30° C. 10 min, 2 mM cocaine, 0.9 U/ml=100% activity; for inhibition of cocaine esterase activity (in words): 30° C., 10 min. The protocol: (§1) The reaction was stopped by the addition of 10 μl of concentrated phosphoric acid and protein pelleted at 13,000 rpm in a minifuge. The amount of benzoic acid produced was determined by HPLC analysis of 50 μl of the supernatant and comparison to standard samples (0-1 mM) treated identically. Standard curves of peak height plotted against benzoic acid concentration were linear over the range 0-1 mM. Controls containing no enzyme solution were run to allow for background hydrolysis. An assay was considered invalid if no cocaine remained at the end of the assay (seen by HPLC). One unit of esterase activity is defined as the amount of enzyme required to produce 1 μmol of benzoic acid in 1 min at 30° C.
The possible inhibitors tested were phenylmethylsulphonyl fluoride (PMSF), eserine, para-hydroxymercuribenzoate (pHMB), benzoate and ecgonine methyl ester.

The test system of data set [2] is cocaine esterase. It is filed as biochemical, Pseudomonas maltophilia MB11L. The note with it: for Km: read-out: Apparent Km. The procedure: as §1
Reactions were stopped using concentrated phosphoric acid (10 μl) to precipitate protein, which was removed by centrifugation at 13,000 rpm in a Microfuge. Rates of substrate hydrolysis were calculated from HPLC analyses of the incubations. Non-enzymic rates of hydrolysis were calculated from control samples containing no enzyme, and the enzyme assays corrected accordingly. Standard samples of the relevant free acids were used to calibrate each assay. […] Lineweaver-Burke and Eadie-Hofstee plots were used to obtain these values (see Fersht, 1985, Enzyme Structure and Mechanism, 2nd Edition, Publishers: W. H. Freeman & Co., Oxford for methods).

Data set [3] is described as follows: Screen of esterases for activity against cocaine (HPLC). The note with it: 2 mM cocaine in 50 mM buffer of pH suited for maximum enzyme activity. It is filed as biochemical.
The nature of data set [4]: Specific activity of esterases against their usual substrate. Particulars: usual substrate of each enzyme. The class given is biochemical. The protocol: Control incubations containing no enzyme were performed under each set of conditions to allow accurate assaying of enzyme activity.
The mark [5] stands for this setting: purified cocaine esterase, 50 mM bis-tris-propane buffer pH 8.0, 30° C., 10 min, mean values.

Where two headings read alike, the source gives them in different places.

`O=C(O)c1ccccc1` [Benzoate, benzoate]: in the data set with cocaine esterase [1], the “% ACTIVITY RELATIVE TO CONTROL” value was determined as 92%. With `O=C(O)c1cc[c]([Hg][OH])cc1` [pHMB, para-hydroxymercuribenzoate], in the data set on cocaine esterase [1], the “inhibition of cocaine esterase activity (in words)” value (shortened to “inhibition”) is recorded as “relatively ineffective” and the “% ACTIVITY RELATIVE TO CONTROL” value was determined as 86%.

Usually Km stands for the concentration of substrate that gives half-maximal velocity. As to `CCOC(=O)c1ccccc1` [Ethyl benzoate], in the data set on cocaine esterase [2] (pH 8), the “Apparent Vmax” value is recorded as 65.0 U/mg and the Michaelis-Menten constant (Km) is 1890 µM.

Take “Electric eel acetyl-cholinesterase: commercially available esterase enzyme”: in data set [3], the “SPECIFIC ACTIVITY (U/mg) AGAINST COCAINE” value was 0 U/mg. The “SPECIFIC ACTIVITY (U/mg) AGAINST USUAL SUBSTRATE” value in data set [4] was 320 U/mg.

`CCOC(=O)c1cccc(O)c1` [Ethyl 3-hydroxybenzoate]: in the data set with cocaine esterase [2] (setting [5]), the “Apparent Km” value is reported as “No activity” and the “Apparent Vmax” value is on record as “No activity”. For the molecule `COC(=O)[C@H]1[C@@H](OC(=O)c2ccccc2)C[C@@H]2CC[C@H]1N2C` [Cocaine], in the data set with cocaine esterase [2] (setting [5]), the “Apparent Vmax” value is recorded as 29.5 U/mg and the Michaelis constant (Km) was 360 µM.

In the case of `CCOC(=O)c1ccc(O)cc1` [Ethyl 4-hydroxybenzoate], in the data set with cocaine esterase [2] (setting [5]), the “Apparent Km” value was “No activity” and the “Apparent Vmax” value is listed as “No activity”. For `CCOC(=O)c1ccccc1O` [Ethyl 2-hydroxycenzoate], the Km with cocaine esterase [2] (setting [5]) was 1750 µM. `O=S(=O)(F)Cc1ccccc1` [PMSF, phenylmethylsulphonyl fluoride]: in the data set with cocaine esterase [1], the “inhibition” value is reported as “total inactivation” and the “% ACTIVITY RELATIVE TO CONTROL” value is 0%.

With “Horse serum butyryl-cholinesterase: commercially available esterase enzyme”, in data set [3], the “SPECIFIC ACTIVITY (U/mg) AGAINST COCAINE” value is 0.098 U/mg. In addition, in data set [4], the “SPECIFIC ACTIVITY (U/mg) AGAINST USUAL SUBSTRATE” value amounted to 14 U/mg. As for `CNC(=O)Oc1ccc2c(c1)[C@]1(C)CCN(C)[C@@H]1N2C` [Eserine, eserine], in the data set with cocaine esterase [1], the “inhibition” value was “relatively ineffective” and the “% ACTIVITY RELATIVE TO CONTROL” value is 95%.

Take `COC(=O)[C@@H]1[C@H]2CC[C@@H](C[C@@H]1O)N2C` [Ecgonine methyl ester, ecgonine methyl ester]: in the data set with cocaine esterase [1], the “% ACTIVITY RELATIVE TO CONTROL” value is 82%.

B1: Porcine pancreatic lipase: commercially available esterase enzyme (protein, UniProt P00591 1-450, looked up)
Pancreatic triacylglycerol …: SEVCFPRLGCFSDDAPWAGIVQRPLKILPWSPKDVDTRFLLYTNQNQNNYQELVADPSTITNSNFRMDRKTRFIIHGFIDKGEEDWLSNICKNLFKVESVNCICVDWKGGSRTGYTQASQNIRIVGAEVAYFVEVLKSSLGYSPSNVHVIGHSLGSHAAGEAGRRTNGTIERITGLDPAEPCFQGTPELVRLDPSDAKFVDVIHTDAAPIIPNLGFGMSQTVGHLDFFPNGGKQMPGCQKNILSQIVDIDGIWEGTRDFVACNHLRSYKYYADSILNPDGFAGFPCDSYNVFTANKCFPCPSEGCPQMGHYADRFPGKTNGVSQVFYLNTGDASNFARWRYKVSVTLSGKKVTGHILVSLFGNEGNSRQYEIYKGTLQPDNTHSDEFDSDVEVGDLQKVKFIWYNNNVINPTLPRVGASKITVERNDGKVYDFCSQETVREEVLLTLNPC
Take B1: the “SPECIFIC ACTIVITY (U/mg) AGAINST COCAINE” value in data set [3] is 0 U/mg. In addition, the “SPECIFIC ACTIVITY (U/mg) AGAINST USUAL SUBSTRATE” value in data set [4] came out at 50 U/mg.
